Inconclusive results are not listed. Activity calls are given as the source filed them. The rule behind the calls is not given here.
Assays:
[1] = dynein cargo transport inhibitors, potency, dose response, imaging, high-content imaging (AID 463136); conditions: HCS imaging, dynein-mediated cargo transport inhibition; inhibition at max concentration; at 50 µM; stronger effect = higher value;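 note: mouse mammary adenocarcinoma 3617.4 cells expressing GFP-tagged rat glucocorticoid receptor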; for inhibition: reference of the scale not given here
[2] = test system: HCS imaging, dynein-mediated cargo transport inhibition; assay: as above

SMILES | inhibition [1] | IC50 [2]
COc1ccc(C(CCN(Cc2ccc(OC)c(OC)c2)C(=O)CCl)c2ccccc2)cc1 (stereo not given) | 70.4% | 37 µM
C=C1C(=O)[C@@]23[C@H](O)C[C@@H]4C(C)(C)CC[C@H](O)[C@@]4(C)[C@@H]2CC[C@@H]1[C@H]3O | 87.3% | 6.12 µM
Cc1ccc(C(=O)Oc2oc(-c3ccco3)nc2C=Nc2ccc(Cl)cc2)cc1 | 65.2% | 46.3 µM
Cc1nc([N+](=O)[O-])c(Br)n1Cc1ccccc1 | 84.8% | 6.35 µM
COc1cc(N2C(=O)C=CC2=O)c(OC)cc1Cl | 12.9% | > 50 µM (inactive)
COc1cccc(C2CC3C(=O)C=CC2N3Cc2ccccc2)c1 (stereo not given) | 90% | 13.3 µM
COc1ccc(OC)c(CCNC(=O)Cn2sc3nc(C)cc(C)c3c2=O)c1 | 93.6% | 29.1 µM
CCCCNC1C(CC)C(CCC)C(C#N)(C#N)C1(C#N)C#N (stereo not given) | 75.2% | 21.7 µM
CC(C)(C)C(=O)Cn1ncc(Cl)c(Cl)c1=O | 90.6% | 7.93 µM
O=C(NCc1cccnc1)/C(=C\c1ccc(-c2ccc(Br)cc2)o1)S(=O)(=O)c1ccccc1 | 55.1% | 39.4 µM
Cn1cc(Br)c(NC(=O)/C=C/C(=O)O)n1 | 6.1% | > 50 µM (inactive)
CCOc1ccc2noc3c2c1C(=O)c1ccccc1-3 | 99.2% | 11 µM
O=C1CN(C(=O)Cn2ncc(Cl)c(Cl)c2=O)c2ccccc2N1 | 76.5% | 9.46 µM
COC(=O)c1cc(=O)n(CCc2ccccc2F)c(=Nc2ccc(F)c(Cl)c2)s1 | 11.9% | > 50 µM (inactive)
Cc1ccc(NC(=O)CCl)cc1S(=O)(=O)N1CCCCCC1 | 88.6% | 10.6 µM
N#CC(C#N)=C1C=CC=CN1/C(=C\c1ccco1)C(=O)c1ccccc1 | 19.2% | > 50 µM (inactive)
CCN1CCN(C2=C(Cl)C(=O)N(Cc3ccccc3)C2=O)CC1 | 87.8% | 20.9 µM
COc1cc(/C=C/C(=O)c2ccc(F)cc2)cc(OC)c1OC | 69.5% | 36.7 µM
Cc1ccc(-c2cn3nc(-c4ccccc4)c(-c4ccccc4)nc3n2)cc1 | 93.2% | 40.2 µM
CC(=O)N1/C(=C/c2ccc(N(C)C)cc2)C(=O)c2ccccc21 | 78.9% | 29.9 µM
CC(=O)OCCN(C)c1cc(SC(C)C)c2nonc2c1[N+](=O)[O-] | 68.1% | 35.5 µM
COC(=O)c1cc(=O)n(CCc2ccc(OC)cc2)c(=Nc2ccc(F)c(Cl)c2)s1 | 13.5% | > 50 µM (inactive)
COC(=O)c1cc(NC(=O)c2ccccc2)c(=O)oc1/C=C/Nc1ccc(Oc2ccccc2)cc1 | 102% | 1.16 µM
N#CC12COC3(CCCCC3C1(C#N)C#N)OC2=N (stereo not given) | 8.2% | > 50 µM (inactive)

SMILES | inhibition [1] | IC50 [2]
COC(=O)CS(=O)(=O)c1nnc([C@H](Cc2ccccc2)NC(=O)OC(C)(C)C)o1 | 34.1% | > 50 µM (inactive)
N/C(=C\C(=O)c1cc(Cl)ccc1O)C(Cl)(Cl)Cl | 76.1% | 33 µM
CCCCNc1ccc2c3c(cccc13)C(=O)N(CCCC)C2=O | 13.5% | > 50 µM (inactive)
O=c1cc(N=Nc2ccc(Cl)cc2)[nH]c(=O)[nH]1 | 80.6% | 13.6 µM
N#C/C(=C/c1ccc(N2CCCCC2)o1)C(=O)NCCc1c[nH]c2ccccc12 | 98.8% | 31.8 µM
Cc1ccccc1NC(=O)COC(=O)c1ccc(S(C)(=O)=O)c([N+](=O)[O-])c1 | 81.2% | 31.8 µM
Clc1ccc(-c2nnc(Sc3nc4ccccc4o3)c3ccccc23)cc1 | 83% | 39.3 µM
CCCSc1cc(NCCOC(=O)CCC)c([N+](=O)[O-])c2nonc12 | 59.1% | 28.4 µM
O=C(NCc1cccnc1)/C(=C/c1ccc(-c2ccc(Cl)cc2)o1)S(=O)(=O)c1ccccc1 | 59.1% | 34.3 µM
CCn1c(SCC(=O)N2CCOCC2)nc2oc3c(Cl)cc(Cl)cc3c(=O)c2c1=O | 78.9% | 33 µM
O=C(/C=C/c1ccncc1)c1ccc2c(c1)OCCO2 | 72.4% | 17.1 µM
N#Cc1c(Cl)c(Cl)c2nnc(-c3ccc(Br)cc3)n2c1Cl | 40.1% | > 50 µM (inactive)
O=C(Cn1ncc(Cl)c(Cl)c1=O)N1CCN(S(=O)(=O)c2ccc3ccccc3c2)CC1 | 65.1% | 24.1 µM
COc1ccc(C(=O)/C=C/C(=O)N(CC(=O)NCCC(C)C)Cc2cccs2)c(O)c1 | 45.7% | > 50 µM (inactive)
CCCCNc1c2c3c(cccc3n(C)c1=O)C(=O)c1ccccc1-2 | 12% | > 50 µM (inactive)
O=c1c(Cl)c(Cl)cnn1Cc1nnc(-c2ccc(Cl)cc2)o1 | 69.6% | 22.9 µM
Cn1cc([N+](=O)[O-])c(C(=O)Nc2cc(Oc3ccccc3)cc([N+](=O)[O-])c2)n1 | 45.9% | > 50 µM (inactive)
CC[n+]1c(/C=C2\Sc3ccccc3N2C)ccc2cccc(C)c21 | 28.3% | 0.765 µM
O=[N+]([O-])/C=C/c1cn(Cc2ccc(F)cc2)c2ccccc12 | 14% | > 50 µM (inactive)
CC(=O)c1sc2nc(-c3cccs3)cc(C(F)(F)F)c2c1N | 86% | 21.6 µM
O=C(/C=C/c1ccccn1)c1cc(Br)ccc1O | 69.4% | 28.3 µM
COc1cccc(/C(O)=C/c2nc3ccc(C(=O)NCCc4ccc(Cl)cc4)cc3[nH]c2=O)c1 | 32.4% | > 50 µM (inactive)
Cc1ccc2nc(/C(C#N)=C\c3ccc(N4CCOCC4)o3)[nH]c2c1 | 80.2% | 13.1 µM
CCOC(=O)C(=Cc1ccc(F)cc1)C(=O)OCC | 73.4% | 27.8 µM

SMILES | inhibition [1] | IC50 [2]
C=CS(=O)c1sc(Cl)c(N2CCOCC2)c1[N+](=O)[O-] (stereo not given) | 57.1% | 45.6 µM
Cc1ccc(-n2nnnc2CCl)cc1 | 80% | 12.2 µM
Cc1cc2oc(=O)cc(Cn3ncc(Cl)c(Cl)c3=O)c2cc1Cl | 65.7% | 20.1 µM
COc1ccc(Oc2cc(NC(=O)c3nn(C)cc3[N+](=O)[O-])cc([N+](=O)[O-])c2)cc1 | 69.9% | 43 µM
CC1(C)C[C@H]2C=C(C=O)[C@]3(C=O)C[C@]3(C)[C@H]2C1 | 78.6% | 12.9 µM
O=C(CN(c1cccc(C(F)(F)F)c1)S(=O)(=O)c1ccc(Cl)c([N+](=O)[O-])c1)NCc1ccccc1 | 15.7% | > 50 µM (inactive)
COc1ccc(-n2cccc2/C=C/[N+](=O)[O-])cc1 | 14.4% | > 50 µM (inactive)
Cc1cc(C)cc(N2C(=O)NC(=O)/C(=C\C=C\c3ccco3)C2=O)c1 | 88% | 32.3 µM
O=C(COc1ccc(/C=C\[N+](=O)[O-])cc1)N1CCOCC1 | 13.7% | > 50 µM (inactive)
N#CC1=C(N)OC2=C(CC/C2=C\c2ccccc2)C1c1ccccc1 (stereo not given) | 75.8% | 11.1 µM
CCN(CC)c1ccc(/C=C/C(=O)c2ccc(Br)cc2)cc1 | 7.65% | > 50 µM (inactive)
C=CCn1c(C)cc(C(=O)Cn2ncc(Cl)c(Cl)c2=O)c1C | 86.5% | 10.3 µM
N#C/C(=C\c1cccc([N+](=O)[O-])c1)C(=O)NCc1ccc(Cl)cc1 | 13.8% | > 50 µM (inactive)
O=C(CCl)N(c1ccccc1)c1ccccc1 | 61.3% | 14.2 µM
O=C(c1ccc(F)cc1)C(CN1CCOCC1)c1ccccc1 (stereo not given) | 85.7% | 7.15 µM
CCCNC(=O)c1nnsc1S(=O)(=O)c1ccc(Cl)cc1 | 69.3% | 8.66 µM
CCn1c(=O)c([N+](=O)[O-])c(Cl)c2ccccc21 | 83.9% | 30.3 µM
CCOC(=O)COc1ccc(/C=C/[N+](=O)[O-])c(OCC(=O)OCC)c1 | 82.8% | 11.4 µM
COC(=O)[C@@]1(Cc2ccccc2)[C@@H]2C(=CC(=O)[C@H]2CC(=O)C(=O)N(C)C)CN1C(=O)c1ccccc1 | 86.2% | 4.67 µM
CCN1CCN(C2=CC3=CC(=C(C#N)C#N)CCC3CC2)CC1 (stereo not given) | 99.2% | 30.6 µM
Cc1ccc(SC(=O)c2c([N+](=O)[O-])c(C)nn2C)cc1 | 6.09% | > 50 µM (inactive)
CCOc1ccccc1N1C(=O)CC(Sc2n[nH]c(-c3ccccc3)n2)C1=O (stereo not given) | 13.5% | > 50 µM (inactive)
